Reference: patent US20230391778A1, “INDOLIN-2-ONE OR PYRROLO -PYRIDIN -2 -ONE DERIVATIVES” (Hoffmann-La Roche Inc., priority 2014, published 2023)
pIC50: −log10 of the molar value. Where a name gives a salt, the structure may show the parent alone.

Each compound was assayed against T1, mouse ENT-1 transporter (Mus musculus, UniProt Q9JIM1) (assay: Measure of adenosine transport activity (ENT1 adenosine uptake inhibition)). Conditions: stable cells expressing mouse ENT-1, [2,8-3H]-adenosine 6 nM, 20 min.
T1 construct: expressed in transfected cells
T1 sequence (Q9JIM1 1-460): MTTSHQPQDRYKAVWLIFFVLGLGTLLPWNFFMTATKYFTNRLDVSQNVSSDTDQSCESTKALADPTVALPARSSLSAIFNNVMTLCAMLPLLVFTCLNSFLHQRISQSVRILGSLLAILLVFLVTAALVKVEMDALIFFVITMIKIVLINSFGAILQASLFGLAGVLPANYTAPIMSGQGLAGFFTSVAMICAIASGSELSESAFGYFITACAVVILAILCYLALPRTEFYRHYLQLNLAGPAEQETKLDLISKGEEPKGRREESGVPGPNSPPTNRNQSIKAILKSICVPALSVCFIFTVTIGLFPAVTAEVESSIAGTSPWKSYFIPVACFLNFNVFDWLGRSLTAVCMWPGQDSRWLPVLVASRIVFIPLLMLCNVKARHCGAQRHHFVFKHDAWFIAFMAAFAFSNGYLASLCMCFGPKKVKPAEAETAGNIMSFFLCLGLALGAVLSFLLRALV
Assay type: cell-based
Procedure: To measure adenosine transport activity of ENT-1 mammalian cells, stable cells expressing the mouse ENT-1 transporter were plated on day 1 in 96-well culture plates at the density of 60,000 cells/well, in complete DMEM/F12 medium supplemented with glutamax, 10% FBS and 10 μg/ml puromycin. On day 2, the medium was aspirated and the cells were washed twice with uptake buffer (10 mM Hepes-Tris, pH 7.4 containing 150 mM NaCl, 1 mM CaCl2), 2.5 mM KCl, 2.5 mM MgSO4, 10 mM D-glucose) (UB). For inhibition experiments, cells were then incubated at RT with various concentrations of compounds with 1% DMSO final. Non-specific uptake was defined in the presence of 10 μM S-(4-Nitrobenzyl)-6-thioinosine (NBTI, Sigma Cat #N2255).
The plates were then incubated for 20 min with gentle shaking and the reaction was stopped by aspiration of the mixture and washing (three times) with ice-cold UB. The cells were lysed by the addition of scintillation liquid, shaken 3 hours and the radioactivity in the cells was estimated using a microplates scintillation counter (TopCount NXT, Packard).

Row | Compound | pIC50
1 | Cc1cc(N2C(=O)C(C)(C)c3ccc(-c4cnc(C)nc4)cc32)ncn1 [Example 7, 3,3-Dimethyl-1-(6-methylpyrimidin-4-yl)-6-(2-methylpyrimidin-5-yl)indolin-2-one] | 5.81
2 | Cc1ncc(-c2ccc3c(c2)N(c2cncc(CO)c2)C(=O)C3(C)C)cn1 [Example 153, 1-(5-(hydroxymethyl)pyridin-3-yl)-3,3-dimethyl-6-(2-methylpyrimidin-5-yl)indolin-2-one] | 6.54
3 | Cc1cc(N2C(=O)C(C)(C)c3ccc(-n4cnc(C5CC5)c4)cc32)ccn1 [Example 21, 6-(4-Cyclopropylimidazol-1-yl)-3,3-dimethyl-1-(2-methyl-4-pyridyl)indolin-2-one] | 5.40
4 | Cc1cnc(N2C(=O)C(C)(C)c3ccc(-c4cncc(F)c4)cc32)cn1 [Example 150, 6-(5-fluoro-3-pyridyl)-3,3-dimethyl-1-(5-methylpyrazin-2-yl)indolin-2-one] | 5.83
5 | Cc1ncc(-c2ccc3c(c2)N(c2ccncc2Cl)C(=O)C3(C)C)cn1 [Example 52, 1-(3-Chloropyridin-4-yl)-3,3-dimethyl-6-(2-methylpyrimidin-5-yl)indolin-2-one] | 5.16
6 | Cc1ncc(-c2ccc3c(c2)N(c2ccc(C)[n+]([O-])n2)C(=O)C3(C)C)c[n+]1[O-] [Example 107, 3-(3,3-dimethyl-6-(2-methyl-1-oxidopyrimidin-5-yl)-2-oxoindolin-1-yl)-6-methylpyridazine 1-oxide] | 5.66
7 | 3,3-dimethyl-6-(2-methylpyrimidin-5-yl)-1-(1-(2,2,2-trifluoroethyl)-1H-pyrazol-3-yl)indolin-2-one [Example 139] | 6.85
8 | Cc1ncc(-c2ccc3c(c2)N(c2c[nH]cn2)C(=O)C3(C)C)cn1 [Example 85, 1-(1H-imidazol-4-yl)-3,3-dimethyl-6-(2-methylpyrimidin-5-yl)indolin-2-one] | 5.28
9 | Cc1ccnc(N2C(=O)C(C)(C)c3ccc(-c4cnc(C)nc4)cc32)c1 [Example 60, 3,3-Dimethyl-1-(4-methylpyridin-2-yl)-6-(2-methylpyrimidin-5-yl)indolin-2-one] | 5.42
10 | Cc1cncc(N2C(=O)C(C)(C)c3ccc(-c4cnc(C)nc4)cc32)c1 [Example 59, 3,3-Dimethyl-1-(5-methylpyridin-3-yl)-6-(2-methylpyrimidin-5-yl)indolin-2-one] | 6.18
11 | Cc1cnc(N2C(=O)C(C)(C)c3ccc(-c4ccnc(C)c4)cc32)cn1 [Example 147, 3,3-dimethyl-1-(5-methylpyrazin-2-yl)-6-(2-methyl-4-pyridyl)indolin-2-one] | 5.05

Now from value to compound:

Row | pIC50 | Compound
12 | 5.98 | Cc1ncc(-c2ccc3c(c2)N(c2cc(C)n(C)n2)C(=O)C3(C)C)cn1 [Example 5, 1-(1,5-Dimethyl-1H-pyrazol-3-yl)-3,3-dimethyl-6-(2-methylpyrimidin-5-yl)indolin-2-one]
13 | 5.17 | Cc1ncc(-c2ccc3c(c2)N(c2cn(C)c(C)n2)C(=O)C3(C)C)cn1 [Example 65, 1-(1,2-Dimethyl-1H-imidazol-4-yl)-3,3-dimethyl-6-(2-methylpyrimidin-5-yl)indolin-2-one]
14 | 5.67 | Cc1cc(N2C(=O)C(C)(C)c3ccc(-c4cnc(C)nc4)cc32)ccn1 [Example 6, 3,3-Dimethyl-1-(2-methylpyridin-4-yl)-6-(2-methylpyrimidin-5-yl)indolin-2-one]
15 | 5.16 | Cc1ncc(-c2ccc3c(c2)N(c2nnn(C)n2)C(=O)C3(C)C)cn1 [Example 105, 3,3-dimethyl-1-(2-methyl-2H-tetrazol-5-yl)-6-(2-methylpyrimidin-5-yl)indolin-2-one]
16 | 5.94 | Cc1ccc(-c2ccc3c(c2)N(c2ccn(C)n2)C(=O)C3(C)C)cn1 [Example 13, 3,3-Dimethyl-1-(1-methyl-1H-pyrazol-3-yl)-6-(6-methylpyridin-3-yl)indolin-2-one]
17 | 6.40 | Cc1ccc(-c2ccc3c(c2)N(c2cnc(C)cn2)C(=O)C3(C)C)cn1 [Example 148, 3,3-dimethyl-1-(5-methylpyrazin-2-yl)-6-(6-methyl-3-pyridyl)indolin-2-one]
18 | 6.30 | Cc1cc(N2C(=O)C(C)(C)c3ccc(-c4cnc(C)nc4)cc32)nc(C)n1 [Example 68, 1-(2,6-Dimethylpyrimidin-4-yl)-3,3-dimethyl-6-(2-methylpyrimidin-5-yl)indolin-2-one]
19 | 5.14 | Cc1ncc(-c2ccc3c(c2)N(c2cc(F)ncc2C)C(=O)C3(C)C)cn1 [Example 47, 1-(2-Fluoro-5-methylpyridin-4-yl)-3,3-dimethyl-6-(2-methylpyrimidin-5-yl)indolin-2-one]
20 | 7.15 | Cc1ncc(-c2ccc3c(c2)N(c2cncc(C#N)c2)C(=O)C3(C)C)cn1 [Example 143, 5-(3,3-dimethyl-6-(2-methylpyrimidin-5-yl)-2-oxoindolin-1-yl)nicotinonitrile]
21 | 6.37 | Cc1cc(N2C(=O)C(C)(C)c3ccc(-c4cnc(C)nc4)cc32)[nH]n1 [Example 86, 3,3-dimethyl-1-(3-methyl-1H-pyrazol-5-yl)-6-(2-methylpyrimidin-5-yl)indolin-2-one hydrochloride]
22 | 6.17 | Cc1cncc(N2C(=O)C(C)(C)c3ccc(-c4cnc(C)nc4)cc32)n1 [Example 63, 3,3-Dimethyl-1-(6-methylpyrazin-2-yl)-6-(2-methylpyrimidin-5-yl)indolin-2-one]
23 | 5.25 | Cc1cc(-c2ccc3c(c2)N(c2ccnc(C)c2)C(=O)C3(C)C)ccn1 [Example 20, 3,3-Dimethyl-1,6-bis(2-methylpyridin-4-yl)indolin-2-one]
24 | 5.68 | Cc1ncc(-c2ccc3c(c2)N(c2cn(C)nn2)C(=O)C3(C)C)cn1 [Example 87, 3,3-dimethyl-1-(1-methyl-1H-1,2,3-triazol-4-yl)-6-(2-methylpyrimidin-5-yl)indolin-2-one]

What follows are compounds tested on L-687,414-induced hyperlocomotion (assay: L-687,414-induced hyperlocomotion). Conditions: Mus musculus; Dose ip 30 mg/kg, mice, 50 mg/kg s.c. L-687,414.
Assay type: in vivo, mouse
Procedure: The described compounds of formula I reduce L-687,414-induced hyperlocomotion. This was assessed by using a computerized Digiscan 16 Animal Activity Monitoring System (Omnitech Electronics, Columbus, Ohio) to quantify locomotor activity. Animals were kept under a 12 h light/dark cycle and experiments were performed during the light period. Each activity monitoring chamber consisted of a Plexiglas box (41×41×28 cm; W×L×H) with sawdust bedding on the floor surrounded by invisible horizontal and vertical infrared sensor beams. The test boxes were divided by a Plexiglas cross providing each mouse with 20×20 cm of moving space. Cages were connected to a Digiscan Analyzer linked to a computer that constantly collected the beam status information. Records of photocell beam interruptions for individual animals were taken every 5 min over the duration of the experimental session and the sum of the first 6 periods was used as the final parameter. At least 8 mice were used in each treatment group. Compounds were administered either p.o. 15 min before a s.c. injection of 50 mg/kg of L-687,414, or i.p. at the same time as a s.c. injection of 50 mg/kg of L-687,414. Mice were then transferred from their home cage to the recording chambers for a 15-min habituation phase allowing free exploration of the new environment. Horizontal activity was then recorded for a 30-min time period. The % inhibition of L-687,414-induced hyperlocomotion was calculated according to the equation:
((Veh+L-687,414 horizontal activity−drug+L-687,414 horizontal activity)/Veh+L-687,414 horizontal activity)×100
ID50 values, defined as doses of each compound producing 50% inhibition of L-687,414-induced hyperlocomotion, were calculated by linear regression analysis of a dose-response data using an Excel-based computer-fitting program.
As data was not presupposed to be normally distributed, groups treated with test compounds were statistically compared with the control (vehicle-treated) group using one-tailed Mann Whitney U tests. In statistics, the Mann-Whitney U test (also called the Mann-Whitney-Wilcoxon (MWW) or Wilcoxon rank-sum test) is a non-parametric statistical hypothesis test for assessing whether one of two samples of independent observations tends to have larger values than the other. It is one of the most well-known non-parametric significance tests. […] P values given in table 1 are one-tailed since only decreases in locomotion were expected and tested for (Mann, H. B., Whitney, D. R. (1947), “On a Test of Whether one of Two Random Variables is Stochastically Larger than the Other”, Annals of Mathematical Statistics, 18 (1), 50-60).

Row | Compound | inhibition in vivo at 30 mg/kg [%]
25 | Cc1ncc(-c2ccc3c(c2)N(c2nc(C)n(C)n2)C(=O)C3(C)C)cn1 [Example 78, 1-(1,5-dimethyl-1H-1,2,4-triazol-3-yl)-3,3-dimethyl-6-(2-methylpyrimidin-5-yl)indolin-2-one] | 89.9
26 | Cc1cc(N2C(=O)C(C)(C)c3ccc(-n4cnc(C)c4)cc32)ccn1 [Example 22, 3,3-Dimethyl-6-(4-methylimidazol-1-yl)-1-(2-methyl-4-pyridyl)indolin-2-one] | 63.8
27 | Cc1ncc(-c2ccc3c(c2)N(c2ccncn2)C(=O)C3(C)C)cn1 [Example 93, 3,3-dimethyl-6-(2-methylpyrimidin-5-yl)-1-(pyrimidin-4-yl)indolin-2-one] | 92.4
28 | Cc1ncc(-c2ccc3c(c2)N(c2ccn(C)n2)C(=O)C3(C)C)o1 [Example 49, 3,3-Dimethyl-6-(2-methyloxazol-5-yl)-1-(1-methylpyrazol-3-yl)indolin-2-one] | 47.1
29 | Cc1cc(-c2cc3c(cn2)C(C)(C)C(=O)N3c2cnn(C)c2)ccn1 [Example 110, 3,3-dimethyl-1-(1-methyl-1H-pyrazol-4-yl)-6-(2-methylpyridin-4-yl)-1H-pyrrolo[3,2-c]pyridin-2(3H)-one] | 58.5
